The structures appear in SMILES notation. Calls of active or inactive are those of the source. The rule behind the calls is not given here.

This series concerns CCRIS mutagenicity, Ames/micronucleus/aberration tests. Briefly: CCRIS mutagenicity studies. The settings on record: Test System: AMES SALMONELLA TYPHIMURIUM
The mark [1] stands for this setting: Strain/Indicator: TA98, Metabolic Activation: HAMSTER, LIVER, S-9, AROCLOR 1254 (10%), Method: PREINCUBATION
[2] abbreviates: Strain/Indicator: TA98, Metabolic Activation: NONE, Method: PREINCUBATION
Where [3] appears, read: Strain/Indicator: TA98, Metabolic Activation: RAT, LIVER, S-9, AROCLOR 1254 (10%), Method: PREINCUBATION
Setting [4] is: Strain/Indicator: TA100, Metabolic Activation: NONE, Method: PREINCUBATION
[5] abbreviates: Strain/Indicator: TA1535, Metabolic Activation: HAMSTER, LIVER, S-9, AROCLOR 1254 (10%), Method: PREINCUBATION
Where [6] appears, read: Strain/Indicator: TA1535, Metabolic Activation: NONE, Method: PREINCUBATION
[7] abbreviates: Strain/Indicator: TA1535, Metabolic Activation: RAT, LIVER, S-9, AROCLOR 1254 (10%), Method: PREINCUBATION
[8] abbreviates: Strain/Indicator: TA100, Metabolic Activation: NONE, Method: STANDARD PLATE.

On to `Clc1cccc(C(Cl)(Cl)Cl)n1`, for which the mutagenic call was “inactive; negative” (Strain/Indicator: TA97, Metabolic Activation: HAMSTER, LIVER, S-9, AROCLOR 1254 (10%), Method: PREINCUBATION); “inactive; negative” (Strain/Indicator: TA97, Metabolic Activation: NONE, Method: PREINCUBATION); “inactive; negative” (Strain/Indicator: TA97, Metabolic Activation: RAT, LIVER, S-9, AROCLOR 1254 (10%), Method: PREINCUBATION); “inactive; negative” (Strain/Indicator: TA98, Metabolic Activation: HAMSTER, LIVER, S-9, AROCLOR 1254 (5%), Method: PREINCUBATION); “active; positive” under setting [1]; “active; positive” (Strain/Indicator: TA98, Metabolic Activation: HAMSTER, LIVER, S-9, AROCLOR 1254 (30%), Method: PREINCUBATION). Further, the mutagenic call by setting is: under setting [2], “inactive; negative”; (Strain/Indicator: TA98, Metabolic Activation: RAT, LIVER, S-9, AROCLOR 1254 (5%), Method: PREINCUBATION) “inactive; negative”; under setting [3], “active; positive”; (Strain/Indicator: TA98, Metabolic Activation: RAT, LIVER, S-9, AROCLOR 1254 (30%), Method: PREINCUBATION) “active; positive”; (Strain/Indicator: TA100, Metabolic Activation: HAMSTER, LIVER, S-9, AROCLOR 1254 (5 OR 10%), Method: PREINCUBATION) “inactive; negative”; (Strain/Indicator: TA100, Metabolic Activation: HAMSTER, LIVER, S-9, AROCLOR 1254 (30%), Method: PREINCUBATION) “active; positive”. For the same molecule, the mutagenic call reads like this: under setting [4], “inactive; negative”; (Strain/Indicator: TA100, Metabolic Activation: RAT, LIVER, S-9, AROCLOR 1254 (5 OR 10%), Method: PREINCUBATION) “inactive; negative”; (Strain/Indicator: TA100, Metabolic Activation: RAT, LIVER, S-9, AROCLOR 1254 (30%), Method: PREINCUBATION) “inactive; negative”; under setting [5], “inactive; negative”; under setting [6], “inactive; negative”; under setting [7], “inactive; negative”.

As to `O[C@@H]1C=Cc2c(ccc3c2ccc2ccccc23)[C@H]1O`, the mutagenic call is “inactive; negative” (Strain/Indicator: TA98, Metabolic Activation: NONE, Method: STANDARD PLATE); “active; positive” (Strain/Indicator: TA100, Metabolic Activation: EPITHELIAL CELL-MEDIATED, AROCLOR 1254, Method: PREINCUBATION); “inactive; negative” (Strain/Indicator: TA100, Metabolic Activation: EPITHELIAL CELL-MEDIATED, Method: PREINCUBATION); “active; positive” (Strain/Indicator: TA100, Metabolic Activation: KUPFFER CELL-MEDIATED, AROCLOR 1254, Method: PREINCUBATION); “inactive; negative” (Strain/Indicator: TA100, Metabolic Activation: KUPFFER CELL-MEDIATED, Method: PREINCUBATION); “inactive; negative” under setting [8]. Besides, the mutagenic call is “active; positive” (Strain/Indicator: TA100, Metabolic Activation: PARENCHYMAL CELL-MEDIATED, AROCLOR 1254, Method: PREINCUBATION); “active; positive” (Strain/Indicator: TA100, Metabolic Activation: PARENCHYMAL CELL-MEDIATED, NADPH, Method: PREINCUBATION); “inactive; negative” (Strain/Indicator: TA100, Metabolic Activation: PARENCHYMAL CELL-MEDIATED, Method: PREINCUBATION); “active; positive” (Strain/Indicator: TA100, Metabolic Activation: RAT, LIVER, S-9, AROCLOR 1254, Method: STANDARD PLATE).

As for `CCCCCCCCCCCCCCC1CO1` (stereo not drawn), the mutagenic call is “inactive; negative” under setting [1]; “inactive; negative” under setting [2]; “inactive; negative” under setting [3]; “inactive; negative” (Strain/Indicator: TA100, Metabolic Activation: HAMSTER, LIVER, S-9, AROCLOR 1254 (10%), Method: PREINCUBATION); “inactive; negative” under setting [4]; “inactive; negative” (Strain/Indicator: TA100, Metabolic Activation: RAT, LIVER, S-9, AROCLOR 1254 (10%), Method: PREINCUBATION). The mutagenic call reads like this: under setting [5], “inactive; negative”; under setting [6], “inactive; negative”; under setting [7], “inactive; negative”; (Strain/Indicator: TA1537, Metabolic Activation: HAMSTER, LIVER, S-9, AROCLOR 1254 (10%), Method: PREINCUBATION) “inactive; negative”; (Strain/Indicator: TA1537, Metabolic Activation: NONE, Method: PREINCUBATION) “inactive; negative”; (Strain/Indicator: TA1537, Metabolic Activation: RAT, LIVER, S-9, AROCLOR 1254 (10%), Method: PREINCUBATION) “inactive; negative”.

As for `CC(C)(O)[C@H]1Cc2cc3ccc(=O)oc3cc2O1`, the mutagenic call is “active; positive” (Strain/Indicator: TA92, Metabolic Activation: NONE, Method: SPOT TEST); “active; positive” (Strain/Indicator: TA92, Metabolic Activation: RAT, LIVER, S-9, AROCLOR 1254, Method: SPOT TEST); “inactive; negative” (Strain/Indicator: TA94, Metabolic Activation: NONE, Method: SPOT TEST); “inactive; negative” (Strain/Indicator: TA94, Metabolic Activation: RAT, LIVER, S-9, AROCLOR 1254, Method: SPOT TEST); “active; positive” (Strain/Indicator: TA97, Metabolic Activation: NONE, Method: SPOT TEST); “active; positive” (Strain/Indicator: TA97, Metabolic Activation: RAT, LIVER, S-9, AROCLOR 1254, Method: SPOT TEST). Further, the mutagenic call by setting is: (Strain/Indicator: TA98, Metabolic Activation: NONE, Method: SPOT TEST) “active; positive”; (Strain/Indicator: TA98, Metabolic Activation: RAT, LIVER, S-9, AROCLOR 1254, Method: SPOT TEST) “active; positive”; (Strain/Indicator: TA100, Metabolic Activation: NONE, Method: SPOT TEST) “active; positive”; under setting [8], “active; positive”; (Strain/Indicator: TA100, Metabolic Activation: RAT, LIVER, S-9, AROCLOR 1254, Method: SPOT TEST) “active; positive”; (Strain/Indicator: TA102, Metabolic Activation: NONE, Method: SPOT TEST) “inactive; negative”. For the same molecule, where the note is “Strain/Indicator: TA102, Metabolic Activation: RAT, LIVER, S-9, AROCLOR 1254, Method: SPOT TEST”, the mutagenic call is “inactive; negative”.

The values above are taken from PubChem BioAssay AID1259407 (Chemical Carcinogenesis Research Information System (CCRIS), 2018).
